This assay deals with HCV replicon, genotype-1a variant with glutamine 30 changed to glutamate in the NS5A protein. Description: microbe, parasite or virus in culture. Particulars: HCV replicon genotype 1a Q30E (Q→E) variant; test compound titrated with an NS5A-targeting compound (BMS-790052 fixed at 200 nM); ranking of synergist activity. The assay is classed as cell-based, HCV genotype 1a. The text has this: The NS5A synergistic inhibitory effect of test compounds can be determined using various amounts of an NS5A-targeting compound with titration of a second compound of interest. […] In one embodiment, the HCV genotype strain can be genotype 1a containing a change at amino acid 30 of the NS5A protein consisting of glutamine to glutamate. The test compound can be chosen from compounds listed above or from others present in the literature.
Background: Replicon systems follow genome replication, usually without infectious particles.

The structures appear in SMILES notation. Where only a bound is given, the exact number is not on record here.

Consider `CC1(C(=O)N[C@H](c2nc(-c3ccc(-c4ccc(-c5c[nH]c([C@@H](NC(=O)C6(C)CCCO6)C(C)(C)C)n5)cc4)cc3)c[nH]2)C(C)(C)C)CCCO1` (stereo partly drawn) [Compound L-69], for which the “Fold-Synergistic 1a (Q30E)” value is given as over 100 fold. Under `CC(C)(C)[C@H](NC(=O)CC1CCCO1)c1nc(-c2ccc(-c3ccc(-c4c[nH]c([C@@H](NC(=O)CC5CCCO5)C(C)(C)C)n4)cc3)cc2)c[nH]1` (stereo partly drawn) [Compound L-70] stands over 100 fold; under `CC(C)(C)[C@H](NC(=O)C1(O)CCC1)c1nc(-c2ccc(-c3ccc(-c4c[nH]c([C@@H](NC(=O)C5(O)CCC5)C(C)(C)C)n4)cc3)cc2)c[nH]1` [Compound L-71], over 100 fold; under `COC(=O)N[C@H](C(=O)N[C@H](c1nc(-c2ccc(-c3ccc(-c4c[nH]c([C@@H](NC(=O)[C@@H](NC(=O)OC)C5C[C@@H](C)O[C@H](C)C5)C(C)(C)C)n4)cc3)cc2)c[nH]1)C(C)(C)C)C1C[C@@H](C)O[C@H](C)C1` (stereo partly drawn) [Compound L-72], over 10 fold. Regarding `CC(C)(C)[C@H](NC(=O)C1(O)CCCC1)c1nc(-c2ccc(-c3ccc(-c4c[nH]c([C@@H](NC(=O)C5(O)CCCC5)C(C)(C)C)n4)cc3)cc2)c[nH]1` [Compound L-73], the “Fold-Synergistic 1a (Q30E)” value is on record as over 100 fold.

Turning to `CC(C)(C)[C@H](NC(=O)[C@H](O)C1CCCCC1)c1nc(-c2ccc(-c3ccc(-c4c[nH]c([C@@H](NC(=O)[C@H](O)C5CCCCC5)C(C)(C)C)n4)cc3)cc2)c[nH]1` [Compound L-74], the “Fold-Synergistic 1a (Q30E)” value is on record as over 100 fold. For `CC(C)(C)[C@H](NC(=O)CC1CCOC2(CC2)C1)c1nc(-c2ccc(-c3ccc(-c4c[nH]c([C@@H](NC(=O)CC5CCOC6(CC6)C5)C(C)(C)C)n4)cc3)cc2)c[nH]1` (stereo partly drawn) [Compound L-75], the “Fold-Synergistic 1a (Q30E)” value is listed as over 100 fold. The figure for `CC(C)(C)[C@H](O)C(=O)N[C@H](c1nc(-c2ccc(-c3ccc(-c4c[nH]c([C@@H](NC(=O)[C@@H](O)C(C)(C)C)C(C)(C)C)n4)cc3)cc2)c[nH]1)C(C)(C)C` [Compound L-76] is over 100 fold; for `CC(C)(C)[C@H](NC(=O)[C@@H](O)C1CCCCC1)c1nc(-c2ccc(-c3ccc(-c4c[nH]c([C@@H](NC(=O)[C@@H](O)C5CCCCC5)C(C)(C)C)n4)cc3)cc2)c[nH]1` [Compound L-77] it is over 100 fold; for `CC(C)[C@H](O)C(=O)N[C@H](c1nc(-c2ccc(-c3ccc(-c4c[nH]c([C@@H](NC(=O)[C@@H](O)C(C)C)C(C)(C)C)n4)cc3)cc2)c[nH]1)C(C)(C)C` [Compound L-78] it is over 100 fold. Regarding `CC(C)(C)[C@H](NC(=O)[C@H]1CCC(=O)O1)c1nc(-c2ccc(-c3ccc(-c4c[nH]c([C@@H](NC(=O)[C@H]5CCC(=O)O5)C(C)(C)C)n4)cc3)cc2)c[nH]1` [Compound L-79], the “Fold-Synergistic 1a (Q30E)” value is on record as under 10 fold. For the compound `CO[C@H](C)C(=O)N[C@H](c1nc(-c2ccc(-c3ccc(-c4c[nH]c([C@@H](NC(=O)[C@@H](C)OC)C(C)(C)C)n4)cc3)cc2)c[nH]1)C(C)(C)C` [Compound L-80], the “Fold-Synergistic 1a (Q30E)” value is reported as over 100 fold. Consider `CC(C)(C)[C@H](NC(=O)[C@H](O)C(F)(F)F)c1nc(-c2ccc(-c3ccc(-c4c[nH]c([C@@H](NC(=O)[C@H](O)C(F)(F)F)C(C)(C)C)n4)cc3)cc2)c[nH]1` [Compound L-81], for which the “Fold-Synergistic 1a (Q30E)” value was over 100 fold.

`CC(C)[C@@H](O)C(=O)N[C@H](c1nc(-c2ccc(-c3ccc(-c4c[nH]c([C@@H](NC(=O)[C@H](O)C(C)C)C(C)(C)C)n4)cc3)cc2)c[nH]1)C(C)(C)C` [Compound L-82]: the “Fold-Synergistic 1a (Q30E)” value was over 100 fold. For `CC1(C(=O)N[C@H](c2nc(-c3ccc(-c4ccc(-c5c[nH]c([C@@H](NC(=O)C6(C)OCCCO6)C(C)(C)C)n5)cc4)cc3)c[nH]2)C(C)(C)C)OCCCO1` [Compound L-83], the “Fold-Synergistic 1a (Q30E)” value is recorded as over 100 fold. As for `CC1(C(=O)N[C@H](c2nc(-c3ccc(-c4ccc(-c5c[nH]c([C@@H](NC(=O)C6(C)OCC7(CC7)CO6)C(C)(C)C)n5)cc4)cc3)c[nH]2)C(C)(C)C)OCC2(CC2)CO1` (stereo partly drawn) [Compound L-84], the “Fold-Synergistic 1a (Q30E)” value is over 100 fold. The figure for `C[C@H]1C[C@H](C)OC(C)(C(=O)N[C@H](c2nc(-c3ccc(-c4ccc(-c5c[nH]c([C@@H](NC(=O)C6(C)O[C@@H](C)C[C@H](C)O6)C(C)(C)C)n5)cc4)cc3)c[nH]2)C(C)(C)C)O1` (stereo partly drawn) [Compound L-85] is over 100 fold; for `CO[C@@H](C(=O)N[C@H](c1nc(-c2ccc(-c3ccc(-c4c[nH]c([C@@H](NC(=O)[C@H](OC)C(C)C)C(C)(C)C)n4)cc3)cc2)c[nH]1)C(C)(C)C)C(C)C` [Compound L-86] it is over 100 fold; for `CC1(C(=O)N[C@H](c2nc(-c3ccc(-c4ccc(-c5c[nH]c([C@@H](NC(=O)C6(C)OCC(F)(F)CO6)C(C)(C)C)n5)cc4)cc3)c[nH]2)C(C)(C)C)OCC(F)(F)CO1` [Compound L-87] it is over 100 fold.

As to `Cc1nnc(C(=O)N[C@H](c2nc(-c3ccc(-c4ccc(-c5c[nH]c([C@@H](NC(=O)c6nnc(C)o6)C(C)(C)C)n5)cc4)cc3)c[nH]2)C(C)(C)C)o1` [Compound L-89], the “Fold-Synergistic 1a (Q30E)” value was over 10 fold. In the case of `O=C(N[C@H](c1nc(-c2ccc(-c3ccc(-c4c[nH]c([C@@H](NC(=O)C5CCC(F)(F)CC5)C5CC5)n4)cc3)cc2)c[nH]1)C1CC1)C1CCC(F)(F)CC1` [Compound L-90], the “Fold-Synergistic 1a (Q30E)” value is over 100 fold. As to `CC(C)(C(=O)N[C@H](c1nc(-c2ccc(-c3ccc(-c4c[nH]c([C@@H](NC(=O)C(C)(C)C5(O)CCC(F)(F)CC5)C5CC5)n4)cc3)cc2)c[nH]1)C1CC1)C1(O)CCC(F)(F)CC1` [Compound L-91], the “Fold-Synergistic 1a (Q30E)” value is listed as over 100 fold.

As to `C[C@@H](OC(=O)N(C)C1(C(=O)N[C@H](c2nc(-c3ccc(-c4ccc(-c5c[nH]c([C@@H](NC(=O)C6(N(C)C(=O)O[C@H](C)C(F)(F)F)CC6)C6(C)CC6)n5)cc4)cc3)c[nH]2)C2(C)CC2)CC1)C(F)(F)F` [Compound L-92], the “Fold-Synergistic 1a (Q30E)” value is over 100 fold. Regarding `CC(C)(C)[C@H](NC(=O)C1(NCC(F)(F)F)CC1)c1nc(-c2ccc(-c3ccc(-c4c[nH]c([C@@H](NC(=O)C5(NCC(F)(F)F)CC5)C(C)(C)C)n4)cc3)cc2)c[nH]1` [Compound L-96], the “Fold-Synergistic 1a (Q30E)” value is reported as over 100 fold. The figure for `COC(=O)N[C@@H](C(=O)N[C@H](c1ncc(-c2ccc(-c3ccc(-c4cnc([C@@H](NC(=O)[C@H](NC(=O)OC)C(C)C)C(C)C)o4)cc3)cc2)o1)C(C)C)C(C)C` [Compound N-1] is over 10 fold; for `COC(=O)N[C@H](C(=O)N[C@H](c1ncc(-c2ccc(C#Cc3ccc(-c4cnc([C@@H](NC(=O)[C@@H](NC(=O)OC)C(C)C)C(C)C)[nH]4)cc3)cc2)[nH]1)C(C)C)C(C)C` [Compound N-5] it is over 10 fold; for `CC(C)CC(=O)N[C@H](c1ncc(-c2ccc(C#Cc3ccc(-c4cnc([C@@H](NC(=O)CC(C)C)C(C)C)[nH]4)cc3)cc2)[nH]1)C(C)C` [Compound N-6] it is over 10 fold.

As for `COC(=O)N[C@H](C(=O)N[C@H](c1nc(-c2ccc3cc(-c4ccc(-c5cnc([C@@H](NC(=O)[C@@H](NC(=O)OC)C(C)C)C(C)(C)C)[nH]5)cc4)ccc3c2)c[nH]1)C(C)(C)C)C(C)C` [Compound N-7], the “Fold-Synergistic 1a (Q30E)” value was under 10 fold. As for `COC(=O)N[C@@H](C(=O)N[C@H](c1nc(-c2ccc3cc(-c4ccc(-c5cnc([C@@H](NC(=O)[C@H](NC(=O)OC)C(C)C)C(C)(C)C)[nH]5)cc4)ccc3c2)c[nH]1)C(C)(C)C)C(C)C` [Compound N-8], the “Fold-Synergistic 1a (Q30E)” value was over 10 fold. Under `CC(C)CC(=O)N[C@H](c1nc(-c2ccc3cc(-c4ccc(-c5cnc([C@@H](NC(=O)CC(C)C)C(C)(C)C)[nH]5)cc4)ccc3c2)c[nH]1)C(C)(C)C` [Compound N-9] stands over 10 fold; under `CC(C)CC(=O)NC1(c2nc(-c3ccc(-c4ccc(-c5c[nH]c(C6(NC(=O)CC(C)C)CCC6)n5)cc4)cc3)c[nH]2)CCC1` [Compound N-11], under 10 fold; under `CC(C)CC(=O)NC1(c2nc(-c3ccc(-c4ccc(-c5c[nH]c(C6(NC(=O)CC(C)C)CCCC6)n5)cc4)cc3)c[nH]2)CCCC1` [Compound N-12], under 10 fold. The figure for `COC(=O)N[C@@H](C(=O)NC1(c2nc(-c3ccc(-c4ccc(-c5c[nH]c(C6(NC(=O)[C@H](NC(=O)OC)C(C)C)CCCC6)n5)cc4)cc3)c[nH]2)CCCC1)C(C)C` [Compound N-13] is under 10 fold.

On to `COC(=O)N[C@@H](C(=O)NC1(c2nc(-c3ccc(-c4ccc(-c5c[nH]c(C6(NC(=O)[C@H](NC(=O)OC)C(C)C)CC=CC6)n5)cc4)cc3)c[nH]2)CC=CC1)C(C)C` [Compound N-14], for which the “Fold-Synergistic 1a (Q30E)” value is under 10 fold. In the case of `COC(=O)N[C@H](C(=O)NC1(c2nc(-c3ccc(-c4ccc(-c5c[nH]c(C6(NC(=O)[C@@H](NC(=O)OC)C(C)C)CC=CC6)n5)cc4)cc3)c[nH]2)CC=CC1)C(C)C` [Compound N-15], the “Fold-Synergistic 1a (Q30E)” value was under 10 fold. Under `CC(C)CC(=O)NC1(c2nc(-c3ccc(-c4ccc(-c5c[nH]c(C6(NC(=O)CC(C)C)CC=CC6)n5)cc4)cc3)c[nH]2)CC=CC1` [Compound N-16] stands under 10 fold; under `COC(=O)N[C@@H](C(=O)NC1(c2nc(-c3ccc(-c4ccc(-c5c[nH]c(C6(NC(=O)[C@H](NC(=O)OC)C(C)C)Cc7ccccc7C6)n5)cc4)cc3)c[nH]2)Cc2ccccc2C1)C(C)C` [Compound N-17], under 10 fold. On to `COC(=O)N[C@H](C(=O)NC1(c2nc(-c3ccc(-c4ccc(-c5c[nH]c(C6(NC(=O)[C@@H](NC(=O)OC)C(C)C)Cc7ccccc7C6)n5)cc4)cc3)c[nH]2)Cc2ccccc2C1)C(C)C` [Compound N-18], for which the “Fold-Synergistic 1a (Q30E)” value is under 10 fold.

Source of the values: US9326973B2, “Hepatitis C virus inhibitors” (priority 2012, dated 2016).
